Laboratory results published in patent US20180265867A1, “NUCLEIC ACID MOLECULES WITH ENHANCED ACTIVITY” (priority 2015, published 2018).
{Cy3} = Cy3 fluorescent dye label; d = 2'-deoxy (DNA); r = 2'-OH (RNA)

Key:
GAPDH = GAPDH gene knockdown in MG63 cells by RT-PCR; assay type: cell-based, human; settings: MG63 cells, carrier-free transfection, 50 nM, 24 h
Procedure: At 70% confluency, a day prior to transfection, the cells were seeded at a density of 35 000 cells in a 24-well cell culture plate to achieve 60-80% confluence at the day of transfection. Cell penetrating siRNAs (cpRNAs) of different lengths were transfected at 50 nM concentrations with Magnet Assisted Transfection (MATra-si) reagent for siRNAs (IBA GmbH, Göttingen, Germany) according to the manufacturers' protocols. Briefly, the siRNA was mixed with MATra-si reagent composed of supermagnetic ironoxide nanoparticles and incubated for 20 min. A complex was formed which was added to the cells to be transfected. A strong magnetic force was applied beneath the cells for 15 min. This forced the complex to be drawn into the cells by the magnetic field, and as a result the siRNA was delivered directly into the cytosol. For carrier free transfection experiments, cpRNAs were simply added to cells lines MG63, HOB, HCT116, fibroblasts and keratinocytes at 50 nM concentrations. Cells were also transfected with negative control siRNA (scrambled sequence) and cells left untreated were taken as controls. Each transfection was performed in triplicate. Post transfection, cells were incubated for 24 hours.
For the experiments involving lysosomotropic agent chloroquine (CQ), CQ was first neutralized to pH 7.4 using 1 M NaOH prior to use. MG63 cells were transfected with dT2, dT5, dT8, (dT5)2, as(dT5), and bl(dT5) siRNA in presence or absence of 100 μM CQ or using MATra-si and incubated for 24 h. Similar experiments were performed for other cpRNAs namely, dA5, dT5, dG5, (dT5)2, rA5 and dC5. For the control experiment, cells were either left untreated or transfected with negative control siRNA (scrambled sequence). Each transfection experiment was performed in triplicate.
After performing transfection experiments for 24 h, 48 h and 72 h respectively, total RNA was isolated from cells by adding 500 μl of lysis buffer (Qiagen, Germany), followed by homogenization of cell lysates using QIAshredder (Qiagen, Germany). RNA was extracted from cell lysates by RNeasy Mini Kit (Qiagen, Germany). All RNA samples were treated with DNase using TURBO-DNAfree (Ambion, USA). Agilent 2100 BioAnalyzer (Agilent Technologies, Palo Alto, Calif.) was used to confirm high quality of all RNA samples, which reports an RNA Integrity Number (RIN) that takes into account the entire electrophoretic RNA trace produced in the analysis. A RIN of greater than or equal to seven indicates the RNA is suitable for high stringency applications.
cDNA synthesis was performed in triplicate using total RNA reverse transcribed using High Capacity cDNA reverse transcription kit (Applied Biosystems, USA), with non-template control added to ensure a lack of signal in assay background. Reactions were incubated on a 96-well Applied Biosystems 9800 Fast Thermal Cycler PCR System at 37° C. for 60 min followed by 95° C. for 5 min. The real-time PCR reactions were carried out with 10 μl of 2×TaqMan® Universal PCR Master Mix, no AmpErase® UNG (Applied Biosystems, USA), 9 μl diluted cDNA, and 1 μl of TaqMan gene specific assay mix in a 20 μl final reaction volume. Reference gene beta-actin (ACTB) (Applied Biosystems, USA) was selected as control for normalization of TaqMan data. The assay included a no-template control, a standard curve of five serial dilution points (in steps of 3-fold) of cDNA mixture. Probes specific for IFN-α (Hs01022060_m1), IFN-β (Hs01077958_s1), IFN-γ (Hs00985251_m1), ACTB(Hs01060665_g1) and GAPDH (Hs02758991_g1) were purchased from Applied Biosystems. The amplification was carried out using the 7500 Fast Real-Time PCR System (Applied Biosystems, USA) using a 40-cycle program. The 7500 software automatically calculates raw Ct (cycle threshold) values. Data from samples with a Ct value equal to or below 35 were further analyzed. […]

MG63 cells [1] = assay: Flow cytometry uptake kinetics and ODN2006 blocking in MG63 cells; assay type: cell-based, human; settings: MG63 cells, 50 nM, 37° C.
Procedure: To determine cpRNA cellular uptake kinetics, FACS experiments were repeated as mentioned above using MG63 cells, where Cy3-cpRNA was treated for different time points. Briefly, Cy3-cpRNA (50 nM) was added to cells, followed by incubation for 0.5 h, 1 h, 1.5 h, 2 h, 3 h and 4 h respectively. The cells were subsequently trypsinised and analyzed by FACS as mentioned above.
To perform […] blocking studies, seeded MG63 cells were incubated with 600 nM 3′-FITC labeled ODN2006 for 1 h, followed by addition of 50 nM cpRNA. Cells were incubated for additional 0.5 h, 1 h, 1.5 h, 2 h, 3 h and 4 h respectively, trypsinised and analyzed by FACS analysis as mentioned above.
To verify if the uptake mechanism of cpRNA was analogous to viral RNA and the RNA mimic polyriboinosinic:polyribocytidylic acid or poly(I:C), blocking studies were performed using the Btype single-stranded DNA sequence ODN2006 which share a common uptake receptor. This synthetic phosphorothioate modified oligo, though initially identified as a TLR9 agonist, blocks cellular uptake of viral RNA and poly(I:C) by preferentially competing with the common RNA uptake receptor. Blocking experiment were performed by pre-incubating the cells with FITC labeled ODN2006 for 1 h, followed by the addition of Cy3-labeled cpRNA. The blocking studies and cellular uptake was monitored using FACS analysis at different time points for up to 4 h. As a control experiment, the uptake kinetics was performed in the absence of FITC labeled ODN2006. […] These experiments verified the involvement of an alternate uptake mechanism and indicated the presence of a ubiquitous RNA capture receptor that required ˜1 h of maturation time before the endocytosis process could initiate.

[2] = tested on: MG63, HOB, HCT116, HEK293 and MC3T3 cells; assay: Flow cytometry cellular uptake of Cy3-cpRNA in different cells; assay type: cell-based, human; mouse; settings: 50 nM, 24 h at 37° C., carrier-free
Procedure: To determine the amount of cellular uptake of cpRNA by flow cytometry, Cy3 labeled cpRNA (Table 3) was used for transfection experiments using different types of cells (MG63, HOB, HCT116, HEK293 and MC3T3). Cells were seeded at a density of 1×10^5 cells per well and cultured for 24 hours. Thereafter, cells were transfected with 50 nM Cy3-cpRNA, with control wells left untreated. Post-transfection, cells were incubated for further 24 h at 37° C., trypsinised and washed with PBS containing 2 mM EDTA and 0.5% human serum albumin. The cells were then suspended in PBS and subjected to fluorescence analysis on a FACSCanto II (BD Biosciences) BioVis platform, scilife laboratory. The images were analyzed using FlowJo software (version 7.6; TreeStar, Ashland, Oreg.).

MG63 cells [3] = settings: no own experiment described; cited from earlier work
MG63 and HOB cells = assay: Cell proliferation / toxicity by MTS assay; assay type: cell-based, human; settings: 50 and 100 nM, 24 h post transfection
Procedure: Cell proliferation was assessed by MTS (3-(4,5-dimethylthiazol-2-yl)-5-(3-carboxymethoxyphenyl)-2-(4-sulfophenyl)-2H-tetrazolium, inner salt) reagent assay: MG63 cells were seeded at a density of 35 000 cells in 24-well culture plates, and cultured for 24 hours as mentioned above. Cells were transfected with 50 nM or 100 nM concentrations of cpRNA and negative control siRNAs with or without MATra-si, while control wells were left untreated. Each transfection experiment was performed in triplicate. Post-transfection, cells were incubated for 24 hours at 37° C. The viable cells were evaluated by MTS assay, using CellTiter 96®AQueousOne Solution Cell Proliferation Assay (Promega, USA) according to the manufacturer's protocol. The enzymatic reduction in MTS to formazan was quantified by an ELISA plate reader (Thermo Scientific) at 490 nm.
Thus, the role of siRNA topography on immune activation and cellular toxicity was investigated because increased RNA length has been reported to cause toxicity with increased interferon (IFN)-β expression. toxicity studies were performed using the MTS assay with two concentrations of GAPDH siRNA (50 and 100 nM) with different overhang lengths (dT2, dT5, and dT8) in MG63 and HOB cells and compared it with the scrambled siRNA sequence (FIG. 5).

[4] = Thermal denaturation (Tm) of siRNA duplexes; assay type: physicochemical
Procedure: Thermal denaturation studies of siRNA was carried out in phosphate buffer, pH 7.0, containing 140 mM KCl. UV absorbance was monitored at 260 nm in the temperature range from 40 to 95° C. using a Lambda 35 UV-Vis spectrophotometer equipped with a Peltier temperature programmer with a heating rate of 0.5° C./min. Samples (1 μM RNA) were denatured at 90° C. for 3 min followed by slow cooling to 27° C. prior to the measurements. Tm values were obtained from the maxima of the first derivatives of the melting curves. All Tm values given are the averages of three independent sets of experiments (±0.3° C. error range).

Substance: Cy3 cpRNA: GAPDH cpRNA with Cy3 at 5′-end of sense strand (SEQ ID NO: 12, dT5), antisense SEQ ID NO: 2 (sense CCGAGCCACAUCGCUCAGATTTTT; antisense UCUGAGCGAUGUGGCUCGGTT; sense: sugars from the 5' end r19 d5, 5' {Cy3}, backbone not given here; antisense: sugars from the 5' end r19 d2, backbone not given here)
- GAPDH gene knockdown (GAPDH): 80%
- time after which cellular uptake was initiated (MG63 cells [1]): 1 h
- time in which uptake finished after initiation (MG63 cells [1]): ≤ 2 h
- cellular uptake by flow cytometry ([2]; listed as Cy3-labeled cpRNA): near quantitative cellular uptake
- cellular uptake by flow cytometry ([2]; listed as Cy3 labeled cpRNA): quantitatively taken up by all the cells

Substance: polyriboinosinic:polyribocytidylic acid [poly(I:C)]
- uptake kinetics (MG63 cells [3]): ≤ 5 min

Substance: dT8: GAPDH siRNA, sense SEQ ID NO: 4 with dT8 3′-overhang, antisense SEQ ID NO: 2 with dT2 (sense CCGAGCCACAUCGCUCAGATTTTTTTT; antisense UCUGAGCGAUGUGGCUCGGTT; sense: sugars from the 5' end r19 d8, backbone not given here; antisense: sugars from the 5' end r19 d2, backbone not given here)
- cytotoxicity (MTS assay) (MG63 and HOB cells): do not impose toxicity
- GAPDH gene knockdown (GAPDH): 50%
- Tm ([4]; 7.5 mM phosphate buffer pH 7.0 containing 140 mM KCl, 1 μM strands, 40-95° C.): 79.8 °C
- Δ Tm ([4]; Tm relative to canonical siRNA (dT2)): −1.4 °C
- drop in Tm ([4]; as compared to canonical siRNA): 1.5 °C
